# Measurements published in patent US20070275967A1, “Pyrazolinols” (BAYER CROPSCIENCE AKTIENGESELLSCHAFT, priority 2003, published 2007).
# Key:
# [1] = system: Meloidogyne incognita; assay: Meloidogyne test (nematicidal action by gall formation on lettuce roots); assay type: in vivo; conditions: for nematicidal action (formation of galls): Meloidogyne incognita egg/larvae suspension, lettuce, sand, result in words; for pest or weed control at 20 ppm: Meloidogyne incognita, 336 h, active compound concentration 20 ppm, after 14 d, nematicidal action by gall formation, read-out: Effect in % after 14 d
# Procedure: Meloidogyne Test [table] To produce a suitable preparation of active compound, 1 part by weight of active compound is mixed with the stated amounts of solvent and emulsifier, and the concentrate is diluted with water to the desired concentration. Containers are filled with sand, solution of active compound, Meloidogyne incognita egg/larvae suspension and lettuce seeds. The lettuce seeds germinate and the plants develop. On the roots, galls are formed. After the desired period of time, the nematicidal action is determined in % by the formation of galls. 100% means that no galls were found; 0% means that the number of galls on the treated plants corresponds to that of the untreated control.
# [2] = logP determination by HPLC on reversed-phase column (EEC Directive 79/831 Annex V.A8); assay type: physicochemical; conditions: reversed-phase C18 HPLC column; acidic range (pH 2.3), marked a); 0.1% aqueous phosphoric acid/acetonitrile gradient; reversed-phase C 18; 43° C.
# Method in brief: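 Reversed-phase C18 HPLC at 43° C with 10–90% acetonitrile linear gradient, run at pH 2.3 (0.1% phosphoric acid) or pH 7.5 (0.01-molar phosphate buffer). logP derived from retention times by linear interpolation against unbranched alkan-2-ones (C3–C16) of known logP.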
# [3] = system: green peach aphid (Myzus persicae); assay: Myzus test (spray treatment); assay type: in vivo; conditions: for activity (kill of aphids): Chinese cabbage disks infested by all stages of Myzus persicae, sprayed, result in words; for pest or weed control at 500 g/ha: active compound concentration 500 g/ha
# Procedure: Myzus Test (Spray Treatment) [table] To produce a suitable preparation of active compound, 1 part by weight of active compound is mixed with the stated amounts of solvents and emulsifier, and the concentrate is diluted with emulsifier-containing water to the desired concentration. Disks of Chinese cabbage (Brassica pekinensis) which are infested by all stages of the green peach aphid (Myzus persicae) are sprayed with a preparation of active compound of the desired concentration. After the desired period of time, the activity in % is determined. 100% means that all aphids have been killed; 0% means that none of the aphids have been killed.
# [4] = system: larvae of the mustard beetle (Phaedon cochleariae); assay: Phaedon test (spray treatment); assay type: in vivo; conditions: for activity (kill of beetle larvae): Chinese cabbage disks sprayed, populated with Phaedon cochleariae larvae, result in words; for pest or weed control at 500 g/ha: active compound concentration 500 g/ha
# Procedure: Phaedon Test (Spray Treatment) [table] To produce a suitable preparation of active compound, 1 part by weight of active compound is mixed with the stated amounts of solvents and emulsifier, and the concentrate is diluted with emulsifier-containing water to the desired concentration. Disks of Chinese cabbage (Brassica pekinensis) are sprayed with a preparation of active compound of the desired concentration and, once they have dried, populated with larvae of the mustard beetle (Phaedon cochleariae). After the desired period of time, the activity in % is determined. 100% means that all beetle larvae have been killed; 0% means that none of the beetle larvae have been killed.
# [5] = system: greenhouse red spidermite (Tetranychus urticae); assay: Tetranychus test (OP-resistant/spray treatment); assay type: in vivo; conditions: for pest or weed control at 100 g/ha / pest or weed control at 500 g/ha: Tetranychus urticae, 120 h, after 5 d, OP-resistant, spray treatment, read-out: Kill rate in % after 5 d; for pest or weed control at 100 g/ha: active compound concentration 100 g/ha; for activity (kill of spidermites): bean leaf disks infested by all stages of Tetranychus urticae (OP-resistant), sprayed, result in words; for pest or weed control at 500 g/ha: active compound concentration 500 g/ha
# Procedure: Tetranychus Test (OP-Resistant/Spray Treatment)
# To produce a suitable preparation of active compound, 1 part by weight of active compound is mixed with the stated amounts of solvents and emulsifier, and the concentrate is diluted with emulsifier-containing water to the desired concentration.
# Disks of bean leaves (Phaseolus vulgaris) which are infested by all stages of the greenhouse red spidermite (Tetranychus urticae) are sprayed with a preparation of active compound of the desired concentration.
# After the desired period of time, the activity in % is determined. 100% means that all spidermites have been killed; 0% means that none of the spidermites have been killed.
# [6] = system: caterpillars of the armyworm (Spodoptera frugiperda); assay: Spodoptera frugiperda test (spray treatment); assay type: in vivo; conditions: for pest or weed control at 500 g/ha: active compound concentration 500 g/ha; for activity (kill of caterpillars): corn leaf disks sprayed, populated with Spodoptera frugiperda caterpillars, result in words
# Procedure: Spodoptera Frugiperda Test (Spray Treatment) [table] To produce a suitable preparation of active compound, 1 part by weight of active compound is mixed with, the stated amounts of solvents and emulsifier, and the concentrate is diluted with emulsifier-containing water to the desired concentration. Disks of corn leaves (Zea mays) are sprayed with a preparation of active compound of the desired concentration and, after they have dried, populated with caterpillars of the armyworm (Spodoptera frugiperda). After the desired period of time, the activity in % is determined. 100% means that all caterpillars have been killed; 0% means that none of the caterpillars have been killed.
# [7] = Myzus persicae, 120 h, after 5 d, spray treatment, read-out: Kill rate in % after 5 d
# [8] = Phaedon cochleariae, 168 h, after 7 d, spray treatment, read-out: Kill rate in % after 7 d
# [9] = Spodoptera frugiperda, 168 h, after 7 d, spray treatment, read-out: Kill rate in % after 7 d
SMILES,nematicidal action (formation of galls) [1],pest or weed control at 20 ppm [1] [%],chromatographic logP [2],activity (kill of aphids) [3],"pest or weed control at 500 g/ha [3, 7] [%]",activity (kill of caterpillars) [6],further results
COc1ccc(NC(=S)N2N=C(C(C)C)CC2(O)C(F)(F)F)cc1 (centres unmarked) [Example 19],good activity,100,3.83,,,,
"CC(C)C1=NN(C(=S)Nc2ccccc2F)C(O)(C(F)(F)F)C1 (centres unmarked) [Example 1, N-(2-fluorophenyl)-5-hydroxy-3-(i-propyl)-5-trifluoromethyl-4,5-dihydro-1H-pyrazole-1-carbothioamide]",,,3.86,good activity,100,good activity,"activity (kill of beetle larvae) [4]: good activity; pest or weed control at 500 g/ha [4, 8]: 100%; pest or weed control at 100 g/ha [5]: 90%; activity (kill of spidermites) [5]: good activity; pest or weed control at 500 g/ha [6, 9]: 100%"
CC(C)C1=NN(C(=S)NCCN2CCOCC2)C(O)(C(F)(F)F)C1 (centres unmarked) [Example 43],good activity,100,1.45,,,,
CCC1=NN(C(=S)Nc2ccccc2Cl)C(O)(C(F)(F)F)C1 (centres unmarked) [Example 15],,,3.85,good activity,90,,
CCC1=NN(C(=S)Nc2ccc(OC)cc2)C(O)(C(F)(F)F)C1 (centres unmarked) [Example 14],good activity,100,3.47,,,,
CC(C)C1=NN(C(=S)Nc2ccccc2Cl)C(O)(C(F)(F)F)C1 (centres unmarked) [Example 20],,,4.28,good activity,100,good activity,"pest or weed control at 500 g/ha [6, 9]: 100%"
CC(C)C1=NN(C(=S)Nc2cc(Cl)ccc2Cl)C(O)(C(F)(F)F)C1 (centres unmarked) [Example 33],,,4.87,good activity,100,,"activity (kill of beetle larvae) [4]: good activity; pest or weed control at 500 g/ha [4, 8]: 100%"
CC1=NN(C(=O)Nc2ccc(C(F)(F)F)cc2)C(O)(C(F)(F)F)C1 (centres unmarked) [Example 115],good activity,100,3.26,,,,
Cc1ccc(NC(=O)N2N=C(C(C)(C)C)CC2(O)C(F)(F)F)cc1 (centres unmarked) [Example 70],,,4.05,good activity,,,"pest or weed control at 100 g/ha ([3]; Myzus persicae, 120 h, active compound concentration 100 g/ha, after 5 d, spray treatment, read-out: Kill rate in % after 5 d): 100%"
CC(C)CC1=NN(C(=S)Nc2ccccc2Cl)C(O)(C(F)(F)F)C1 (centres unmarked) [Example 24],,,4.6,good activity,90,good activity,"pest or weed control at 500 g/ha [5]: 90%; activity (kill of spidermites) [5]: good activity; pest or weed control at 500 g/ha [6, 9]: 100%"
CC(C)(C)C1=NN(C(=S)NCc2ccc(Cl)cc2)C(O)(C(F)(F)F)C1 (centres unmarked) [Example 75],,,4.9,,,good activity,"activity (kill of beetle larvae) [4]: good activity; pest or weed control at 100 g/ha ([4]; Phaedon cochleariae, 168 h, active compound concentration 100 g/ha, after 7 d, spray treatment, read-out: Kill rate in % after 7 d): 100%; pest or weed control at 100 g/ha [5]: 100%; activity (kill of spidermites) [5]: good activity; pest or weed control at 100 g/ha ([6]; Spodoptera frugiperda, 168 h, active compound concentration 100 g/ha, after 7 d, spray treatment, read-out: Kill rate in % after 7 d): 100%"
CC1=NN(C(=S)NCc2ccc(Cl)cc2)C(O)(C(F)(F)F)C1 (centres unmarked) [Example 123],good activity,90,,,,,
CC(C)C1=NN(C(=S)NCc2ccccc2Cl)C(O)(C(F)(F)F)C1 (centres unmarked) [Example 42],,,4.58,good activity,100,good activity,"activity (kill of beetle larvae) [4]: good activity; pest or weed control at 500 g/ha [4, 8]: 100%; pest or weed control at 500 g/ha [5]: 100%; activity (kill of spidermites) [5]: good activity; pest or weed control at 500 g/ha [6, 9]: 100%"
CC1=NN(C(=O)Nc2ccc(Cl)cc2)C(O)(C(F)(F)F)C1 (centres unmarked) [Example 114],good activity,90,3,,,,
CC1=NN(C(=S)Nc2c(F)cccc2F)C(O)(C(F)(F)F)C1 (centres unmarked) [Example 100],good activity,90,2.91,,,,
CCC1=NN(C(=S)Nc2ccccc2F)C(O)(C(F)(F)F)C1 (centres unmarked) [Example 40],,,3.51,good activity,90,,
CC(C)C1=NN(C(=S)Nc2ccccc2[N+](=O)[O-])C(O)(C(F)(F)F)C1 (centres unmarked) [Example 31],,,4.04,good activity,100,good activity,"activity (kill of beetle larvae) [4]: good activity; pest or weed control at 500 g/ha [4, 8]: 100%; pest or weed control at 500 g/ha [6, 9]: 100%"
CC(C)C1=NN(C(=S)Nc2ccccc2)C(O)(C(F)(F)F)C1 (centres unmarked) [Example 27],,,3.9,good activity,100,good activity,"activity (kill of beetle larvae) [4]: good activity; pest or weed control at 500 g/ha [4, 8]: 100%; pest or weed control at 100 g/ha [5]: 90%; activity (kill of spidermites) [5]: good activity; pest or weed control at 500 g/ha [6, 9]: 100%"
CC1=NN(C(=S)Nc2ccc(Cl)cc2)C(O)(C(F)(F)F)C1 (centres unmarked) [Example 122],good activity,90,,,,,
CCC1=NN(C(=O)Nc2ccc(OC(F)(F)F)cc2)C(O)(C(F)(F)F)C1 (centres unmarked) [Example 12],,,3.74,good activity,100,,
CC1=NN(C(=O)Nc2ccc(OC(F)(F)F)cc2)C(O)(C(F)(F)F)C1 (centres unmarked) [Example 46],,,3.35,good activity,90,,
